Legend:
[1] = in vitro; conditions: human
[2] = system: HCV replicon (Genotype 1b); assay: Luciferase genotype 1b replicon potency assay; conditions: Hepatitis C virus, GETYPE1B, read-out: IC50 μM, HCV genotype 1b luciferase replicon, Renilla luciferase reporter

Compound	CC50 [1]	IC50 [2]
COC(=O)[C@@H](C)c1ccc2cc(OP(=O)(N[C@@H](C)C(=O)OC3CCOCC3)OC[C@H]3OC(n4cnc5c(OC)nc(N)nc54)[C@](C)(O)[C@@H]3O)ccc2c1 (stereo partly drawn) [Example 29, (2S)-methyl 2-(6-((((2R,3R,4R)-5-(2-amino-6-methoxy-9H-purin-9-yl)-3,4-dihydroxy-4-methyltetrahydrofuran-2-yl)methoxy)((S)-1-oxo-1-(tetrahydro-2H-pyran-4-yloxy)propan-2-ylamino)phosphoryloxy)naphthalen-2-yl)propanoate]	> 100000 nM	0.11 µM
COc1nc(N)nc2c1ncn2C1O[C@H](COP(=O)(N[C@@H](C)C(=O)OCc2ccc(F)cc2F)Oc2cccc3ncccc23)[C@@H](O)[C@@]1(C)O (stereo partly drawn) [Example 30, (2S)-2,4-difluorobenzyl 2-((((2R,3R,4R)-5-(2-amino-6-methoxy-9H-purin-9-yl)-3,4-dihydroxy-4-methyltetrahydrofuran-2-yl)methoxy)(quinolin-5-yloxy)phosphorylamino)propanoate]	110000 nM	0.13 µM
COc1nc(N)nc2c1ncn2C1O[C@H](COP(=O)(N[C@@H](C)C(=O)OCC(C)(C)C)Oc2cccc3ncccc23)[C@@H](O)[C@@]1(C)O (stereo partly drawn) [Example 31, (2S)-neopentyl 2-((((2R,3R,4R)-5-(2-amino-6-methoxy-9H-purin-9-yl)-3,4-dihydroxy-4-methyltetrahydrofuran-2-yl)methoxy)(quinolin-5-yloxy)phosphorylamino)propanoate]	> 100000 nM	0.19 µM
COc1nc(N)nc2c1ncn2C1O[C@H](COP(=O)(N[C@@H](C)C(=O)OC2CCOCC2)Oc2cccc3ncccc23)[C@@H](O)[C@@]1(C)O (stereo partly drawn) [Example 32, (2S)-tetrahydro-2H-pyran-4-yl 2-((((2R,3R,4R)-5-(2-amino-6-methoxy-9H-purin-9-yl)-3,4-dihydroxy-4-methyltetrahydrofuran-2-yl)methoxy)(quinolin-5-yloxy)phosphorylamino)propanoate]	> 100000 nM	1.2 µM
COc1nc(N)nc2c1ncn2C1O[C@H](COP(=O)(N[C@@H](C)C(=O)OCC(C)(C)C)Oc2ccc3ncccc3c2)[C@@H](O)[C@@]1(C)O (stereo partly drawn) [Example 33, (2S)-neopentyl 2-((((2R,3R,4R)-5-(2-amino-6-methoxy-9H-purin-9-yl)-3,4-dihydroxy-4-methyltetrahydrofuran-2-yl)methoxy)(quinolin-6-yloxy)phosphorylamino)propanoate]	> 100000 nM	0.26 µM
COc1nc(N)nc2c1ncn2C1O[C@H](COP(=O)(N[C@@H](C)C(=O)OC2CCOCC2)Oc2ccc3ncccc3c2)[C@@H](O)[C@@]1(C)O (stereo partly drawn) [Example 34, (2S)-tetrahydro-2H-pyran-4-yl 2-((((2R,3R,4R)-5-(2-amino-6-methoxy-9H-purin-9-yl)-3,4-dihydroxy-4-methyltetrahydrofuran-2-yl)methoxy)(quinolin-6-yloxy)phosphorylamino)propanoate]	> 100000 nM	1.1 µM
COc1nc(N)nc2c1ncn2C1O[C@H](COP(=O)(N[C@@H](C)C(=O)OCC(C)(C)C)Oc2ccccc2)[C@@H](O)[C@@]1(C)O (stereo partly drawn) [Example 35, (2S)-neopentyl 2-((((2R,3R,4R)-5-(2-amino-6-methoxy-9H-purin-9-yl)-3,4-dihydroxy-4-methyltetrahydrofuran-2-yl)methoxy)(phenoxy)phosphorylamino)propanoate]	38000 nM	0.049 µM
COc1nc(N)nc2c1ncn2C1O[C@H](COP(=O)(N[C@H](C(=O)OCc2ccc(F)cc2F)C(C)C)Oc2cccc3ccccc23)[C@@H](O)[C@@]1(C)O (some centres unmarked) [Example 37]	16000 nM	0.043 µM
COc1nc(N)nc2c1ncn2C1O[C@H](COP(=O)(N[C@H](C(=O)O[C@@H](C)c2ccc(Br)cc2)C(C)C)Oc2cccc3ccccc23)[C@@H](O)[C@@]1(C)O (stereo partly drawn) [Example 39, (2S)-((S)-1-(4-bromophenyl)ethyl) 2-((((2R,3R,4R)-5-(2-amino-6-methoxy-9H-purin-9-yl)-3,4-dihydroxy-4-methyltetrahydrofuran-2-yl)methoxy)(naphthalen-1-yloxy)phosphorylamino)-3-methylbutanoate]	900 nM	2.2 µM
COc1nc(N)nc2c1ncn2C1O[C@H](COP(=O)(N[C@H](C(=O)O[C@@H](C)c2ccccc2Br)C(C)C)Oc2cccc3ccccc23)[C@@H](O)[C@@]1(C)O (stereo partly drawn) [Example 40, (2S)-((S)-1-(2-bromophenyl)ethyl) 2-((((2R,3R,4R)-5-(2-amino-6-methoxy-9H-purin-9-yl)-3,4-dihydroxy-4-methyltetrahydrofuran-2-yl)methoxy)(naphthalen-1-yloxy)phosphorylamino)-3-methylbutanoate]	44000 nM	2.9 µM
COC(=O)[C@@H](NP(=O)(OC[C@H]1OC(n2cnc3c(OC)nc(N)nc32)[C@](C)(O)[C@@H]1O)Oc1cccc2ccccc12)C(C)C (stereo partly drawn) [Example 41, (2S)-methyl 2-((((2R,3R,4R)-5-(2-amino-6-methoxy-9H-purin-9-yl)-3,4-dihydroxy-4-methyltetrahydrofuran-2-yl)methoxy)(naphthalen-1-yloxy)phosphorylamino)-3-methylbutanoate]	22000 nM	0.38 µM
COc1nc(N)nc2c1ncn2C1O[C@H](COP(=O)(N[C@H](C(=O)OCC2CC2)C(C)C)Oc2cccc3ccccc23)[C@@H](O)[C@@]1(C)O (stereo partly drawn) [Example 43, (2S)-cyclopropylmethyl 2-((((2R,3R,4R)-5-(2-amino-6-methoxy-9H-purin-9-yl)-3,4-dihydroxy-4-methyltetrahydrofuran-2-yl)methoxy) (naphthalen-1-yloxy)phosphorylamino)-3-methylbutanoate]	6000 nM	0.18 µM
COc1nc(N)nc2c1ncn2C1O[C@H](COP(=O)(N[C@H](C(=O)OC2CCC2)C(C)C)Oc2cccc3ccccc23)[C@@H](O)[C@@]1(C)O (stereo partly drawn) [Example 44, (2S)-cyclobutyl 2-((((2R,3R,4R)-5-(2-amino-6-methoxy-9H-purin-9-yl)-3,4-dihydroxy-4-methyltetrahydrofuran-2-yl)methoxy)(naphthalen-1-yloxy)phosphorylamino)-3-methylbutanoate]	64000 nM	0.39 µM
COc1nc(N)nc2c1ncn2C1O[C@H](COP(=O)(N[C@H](C(=O)OC2CCCC2)C(C)C)Oc2cccc3ccccc23)[C@@H](O)[C@@]1(C)O (some centres unmarked) [Example 45]	56000 nM	0.33 µM
COc1nc(N)nc2c1ncn2C1O[C@H](COP(=O)(N[C@H](C(=O)OC2CCCCC2)C(C)C)Oc2cccc3ccccc23)[C@@H](O)[C@@]1(C)O (some centres unmarked) [Example 46]	24000 nM	0.42 µM
COC(=O)[C@@H](C)c1ccc2cc(OP(=O)(N[C@H](C(=O)OCC(C)(C)C)C(C)C)OC[C@H]3OC(n4cnc5c(OC)nc(N)nc54)[C@](C)(O)[C@@H]3O)ccc2c1 (stereo partly drawn) [Example 48, (2S)-neopentyl 2-((((2R,3R,4R)-5-(2-amino-6-methoxy-9H-purin-9-yl)-3,4-dihydroxy-4-methyltetrahydrofuran-2-yl)methoxy) (6-((S)-1-methoxy-1-oxopropan-2-yl)naphthalen-2-yloxy)phosphorylamino)-3-methylbutanoate]	29000 nM	0.21 µM

Source: patent US8759318B2, “Phosphoramidate derivatives of guanosine nucleoside compounds for treatment of viral infections” (Inhibitex, Inc., priority 2009, dated 2014)
